Experimental data from patent US9550739B2, “Molecules having certain pesticidal utilities, and intermediates, compositions, and processes related thereto” (priority 2014, dated 2017).

Legend:
Type in all cases: in vivo
[1] = test system: Beet Armyworm (Spodoptera exigua, LAPHEG) ("BAW"); assay: Bioassays on Beet Armyworm (BAW), 128-well diet tray assay; settings: Spodoptera exigua, 168 h; second instar BAW larvae, 50 μg/cm^2 on artificial diet, five to seven days, 25° C.; read-out: BAW % Control (or Mortality) rating
Protocol: (§1) Certain molecules disclosed in this document were tested against BAW and CEW using procedures described in the following examples. In the reporting of the results, the “BAW & CL Rating Table” was used (See Table Section).
Bioassays on BAW were conducted using a 128-well diet tray assay. one to five second instar BAW larvae were placed in each well (3 mL) of the diet tray that had been previously filled with 1 mL of artificial diet to which 50 μg/cm^2 of the test compound (dissolved in 50 μL of 90:10 acetone-water mixture) had been applied (to each of eight wells) and then allowed to dry. Trays were covered with a clear self-adhesive cover and held at 25° C., 14:10 light-dark for five to seven days. Percent mortality was recorded for the larvae in each well; activity in the eight wells was then averaged. The results are indicated in the table entitled “Table ABC: Biological Results” (See Table Section).

[2] = test system: Cabbage Looper (Trichoplusia ni, TRIPNI) ("CL"); assay: Bioassays on Cabbage Looper (CL), 128-well diet tray assay; settings: Trichoplusia ni, 168 h, read-out: CL % Control (or Mortality) rating
Protocol: as §1
Bioassays on CL were conducted using a 128-well diet tray assay. one to five second instar CL larvae were placed in each well (3 mL) of the diet tray that had been previously filled with 1 mL of artificial diet to which 50 μg/cm^2 of the test compound (dissolved in 50 μL of 90:10 acetone-water mixture) had been applied (to each of eight wells) and then allowed to dry. Trays were covered with a clear self-adhesive cover and held at 25° C., 14:10 light-dark for five to seven days. Percent mortality was recorded for the larvae in each well; activity in the eight wells was then averaged. The results are indicated in the table entitled “Table ABC: Biological Results” (See Table Section).

[3] = test system: Yellow Fever Mosquito (Aedes aegypti, AEDSAE) ("YFM"); settings: about 1 day-old larvae, 4000 ppm master solution diluted, 3 days, room temperature
Protocol: Certain molecules disclosed in this document were tested against YFM using procedures described in the following paragraph. In the reporting of the results, the “YFM Rating Table” was used (See Table Section).
Master plates containing 400 μg of a molecule dissolved in 100 μL of dimethyl sulfoxide (DMSO) (equivalent to a 4000 ppm solution) are used. A master plate of assembled molecules contains 15 μL per well. To this plate, 135 μL of a 90:10 water:acetone mixture is added to each well. A robot (Biomek® NXP Laboratory Automation Workstation) is programmed to dispense 15 μL aspirations from the master plate into an empty 96-well shallow plate (“daughter” plate). There are 6 reps (“daughter” plates) created per master. The created daughter plates are then immediately infested with YFM larvae.
The day before plates are to be treated, mosquito eggs are placed in Millipore water containing liver powder to begin hatching (4 g. into 400 mL). After the daughter plates are created using the robot, they are infested with 220 μL of the liver powder/larval mosquito mixture (about 1 day-old larvae). After plates are infested with mosquito larvae, a non-evaporative lid is used to cover the plate to reduce drying. Plates are held at room temperature for 3 days prior to grading. After 3 days, each well is observed and scored based on mortality.

Structure (SMILES) | mortality at 50 µg/cm2 [1] [%] | mortality at 50 µg/cm2 [2] [%] | YFM % Control (or Mortality) rating [3]
COc1ccccc1-c1cc(C(=O)Nc2ccc(-c3ncn(-c4ccc(OC(F)(F)F)cc4)n3)cc2)ccc1F [F44, 6-Fluoro-2′-methoxy-N-(4-(1-(4-(trifluoromethoxy)phenyl)-1H-1,2,4-triazol-3-yl)phenyl)-[1,1′-biphenyl]-3-carboxamide] | 50 to 100 | 50 to 100 | B (More than 0-Less than 80)
COc1ccccc1-c1cccc(C(=S)Nc2ccc(-c3ncn(-c4ccc(OC(F)(F)F)cc4)n3)cc2)c1 [F21, 2′-Methoxy-N-(4-(1-(4-(trifluoromethoxy)phenyl)-1H-1,2,4-triazol-3-yl)phenyl)-[1,1′-biphenyl]-3-carbothioamide] | 50 to 100 | 50 to 100 | A (80-100)
Cc1ccccc1-c1cc(C(=O)Nc2ccc(-c3ncn(-c4ccc(OC(F)(F)F)cc4)n3)cc2)ccc1Cl [F32, 6-Chloro-2′-methyl-N-(4-(1-(4-(trifluoromethoxy)phenyl)-1H-1,2,4-triazol-3-yl)phenyl)-[1,1′-biphenyl]-3-carboxamide] | 0 | 50 to 100 | D (No activity noticed in this bioassay)
COc1ccccc1-c1cc(C(=O)Nc2ccc(-c3ncn(-c4ccc(OC(C)C)cc4)n3)cc2)ccc1F [F4, 6-Fluoro-N-(4-(1-(4-isopropoxyphenyl)-1H-1,2,4-triazol-3-yl)phenyl)-2′-methoxy-[1,1′-biphenyl]-3-carboxamide] | 50 to 100 | 50 to 100 | B (More than 0-Less than 80)
COc1ccccc1-c1cc(C(=O)N(C(C)=O)c2ccc(-c3ncn(-c4ccc(OC(F)(F)F)cc4)n3)cc2)ccc1F [F67, N-acetyl-6-fluoro-2′-methoxy-N-(4-(1-(4-(trifluoromethoxy)phenyl)-1H-1,2,4-triazol-3-yl)phenyl)-[1,1′-biphenyl]-3-carboxamide] | 50 to 100 | 50 to 100 | A (80-100)
O=C(Nc1ccc(-c2ncn(-c3ccc(OC(F)(F)F)cc3)n2)cc1)c1ccc(F)c(-c2ccccc2)c1 [F11, 6-Fluoro-N-(4-(1-(4-(trifluoromethoxy)phenyl)-1H-1,2,4-triazol-3-yl)phenyl)-[1,1′-biphenyl]-3-carboxamide] | 50 to 100 | 50 to 100 | D (No activity noticed in this bioassay)
Cc1cccc(C)c1-c1cccc(C(=O)Nc2ccc(-c3ncn(-c4ccc(OC(F)(F)C(F)(F)F)cc4)n3)cc2)c1 [F31, 2′,6′-Dimethyl-N-(4-(1-(4-(perfluoroethoxy)phenyl)-1H-1,2,4-triazol-3-yl)phenyl)-[1,1′-biphenyl]-3-carboxamide] | 50 to 100 | 50 to 100 | D (No activity noticed in this bioassay)
Cc1ccccc1-c1cccc(C(=O)Nc2ccc(-c3ncn(-c4ccc(OC(F)(F)C(F)(F)F)cc4)n3)cc2)c1 [F35, 2′-Methyl-N-(4-(1-(4-(perfluoroethoxy)phenyl)-1H-1,2,4-triazol-3-yl)phenyl)-[1,1′-biphenyl]-3-carboxamide] | 50 to 100 | 50 to 100 | D (No activity noticed in this bioassay)
O=C(Nc1ccc(-c2ncn(-c3ccc(OC(F)(F)F)cc3)n2)cc1)c1cccc(-c2ccc(Cl)cc2Cl)n1 [F18, 6-(2,4-Dichlorophenyl)-N-(4-(1-(4-(trifluoromethoxy)phenyl)-1H-1,2,4-triazol-3-yl)phenyl)picolinamide] | 0 | 0 | D (No activity noticed in this bioassay)
O=C(Nc1ccc(-c2ncn(-c3ccc(OC(F)(F)C(F)(F)F)cc3)n2)cc1)c1ccc(F)c(-c2ccccc2)c1 [F40, 6-Fluoro-N-(4-(1-(4-(perfluoroethoxy)phenyl)-1H-1,2,4-triazol-3-yl)phenyl)-[1,1′-biphenyl]-3-carboxamide] | 0 | 50 to 100 | D (No activity noticed in this bioassay)
Cc1ccccc1-c1cc(C(=O)Nc2ccc(-c3ncn(-c4ccc(C(F)(F)F)cc4)n3)cc2)ccc1F [F58, 6-Fluoro-2′-methyl-N-(4-(1-(4-(trifluoromethyl)phenyl)-1H-1,2,4-triazol-3-yl)phenyl)-[1,1′-biphenyl]-3-carboxamide] | 50 to 100 | 50 to 100 | D (No activity noticed in this bioassay)
O=C(Nc1ccc(-c2ncn(-c3ccc(C(F)(F)F)cc3)n2)cc1)c1ccccn1 [F68, N-(4-(1-(4-(trifluoromethyl)phenyl)-1H-1,2,4-triazol-3-yl)phenyl)picolinamide] | 0 to 50 | 0 | D (No activity noticed in this bioassay)
O=C(Nc1ccc(-c2ncn(-c3ccc(OC(F)(F)F)cc3)n2)cc1)c1cccc(-c2ccccc2)n1 [F27, 6-Phenyl-N-(4-(1-(4-(trifluoromethoxy)phenyl)-1H-1,2,4-triazol-3-yl)phenyl)picolinamide] | 0 to 50 | 0 | D (No activity noticed in this bioassay)
COc1ccccc1-c1cc(C(=O)Nc2ccc(-c3ncn(-c4ccc(C(F)(F)F)cc4)n3)cc2)ccc1F [F20, 6-fluoro-2′-methoxy-N-(4-(1-(4-(trifluoromethyl)phenyl)-1H-1,2,4-triazol-3-yl)phenyl)-[1,1′-biphenyl]-3-carboxamide] | 50 to 100 | 50 to 100 | A (80-100)
O=C(Nc1ccc(-c2ncn(-c3ccc(OC(F)(F)F)cc3)n2)cc1)c1cc(Cl)cc(-c2ccccc2)c1 [F43, 5-Chloro-N-(4-(1-(4-(trifluoromethoxy)phenyl)-1H-1,2,4-triazol-3-yl)phenyl)-[1,1′-biphenyl]-3-carboxamide] | 50 to 100 | 50 to 100 | D (No activity noticed in this bioassay)
O=C(Nc1ccc(-c2ncn(-c3ccc(OC(F)(F)F)cc3)n2)cc1)c1cc(-c2ccccc2)ccc1Cl [F15, 4-Chloro-N-(4-(1-(4-(trifluoromethoxy)phenyl)-1H-1,2,4-triazol-3-yl)phenyl)-[1,1′-biphenyl]-3-carboxamide] | 0 | 0 | D (No activity noticed in this bioassay)
COc1ccccc1-c1cccc(C(=O)Nc2ccc(-c3ncn(-c4ccc(OC(F)(F)F)cc4)n3)cc2)c1 [F22, 2′-Methoxy-N-(4-(1-(4-(trifluoromethoxy)phenyl)-1H-1,2,4-triazol-3-yl)phenyl)-[1,1′-biphenyl]-3-carboxamide] | 50 to 100 | 50 to 100 | A (80-100)
CN(C)c1ccccc1-c1cccc(C(=O)Nc2ccc(-c3ncn(-c4ccc(OC(F)(F)F)cc4)n3)cc2)c1 [F10, 2′-(Dimethylamino)-N-(4-(1-(4-(trifluoromethoxy)phenyl)-1H-1,2,4-triazol-3-yl)phenyl)-[1,1′-biphenyl]-3-carboxamide] | 50 to 100 | 50 to 100 | B (More than 0-Less than 80)
Cc1ccc(-c2cccc(C(=O)Nc3ccc(-c4ncn(-c5ccc(OC(F)(F)F)cc5)n4)cc3)n2)c(C)c1 [F2, 6-(2,4-Dimethylphenyl)-N-(4-(1-(4-(trifluoromethoxy)phenyl)-1H-1,2,4-triazol-3-yl)phenyl)picolinamide] | 0 to 50 | 0 | D (No activity noticed in this bioassay)
O=C(NCc1ccc(-c2ncn(-c3ccc(OC(F)(F)F)cc3)n2)cc1)c1cccc(-c2ccccc2)c1 [F57, N-(4-(1-(4-(trifluoromethoxy)phenyl)-1H-1,2,4-triazol-3-yl)benzyl)-[1,1′-biphenyl]-3-carboxamide] | 0 | 50 to 100 | D (No activity noticed in this bioassay)
